# The source made the active and inactive calls.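 Rule for the calls: active = inhibitors whose fitted AC50 is no more than ten times their highest valid tested dose; inconclusive = flat fit with 30 to 70% inhibition, or poor fit; inactive = the rest.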
# Target: Dual specificity tyrosine-phosphorylation-regulated kinase 1A (Rattus norvegicus) (UniProt Q63470)
# Experiment: Dyrk1A kinase inhibitors, NFAT signaling, dose response, biochemical, cherry-pick, plate reader, 2124-03 (AID 588449)
# Conditions: recombinant Dyrk1A, ADP-Glo luminescence, NFATc1 peptide
row,AC50,Structure (SMILES)
1,168 nM,Cc1nc(CNc2ncnc3ccc(-c4ccc5c(c4)OCO5)cc23)cs1
2,83.2 nM,Fc1c(-c2ccc3ncnc(NCc4cccs4)c3c2)ccc2c1OCO2
3,9670 nM,Clc1ccc(CNc2ncncc2-c2ccc3c(c2)OCO3)cc1
4,3160 nM,Clc1ccccc1-c1ccc2ncnc(NCc3ccc4c(c3)OCO4)c2c1
5,209 nM,Brc1ccc(CNc2nccc(-c3ccc4c(c3)OCO4)n2)cc1Br
6,18 nM,CCN(Cc1cccs1)c1ncnc2ccc(-c3ccc4c(c3)OCO4)cc12
7,11300 nM,Clc1ccc(CNc2cc(-c3ccc4c(c3)OCO4)ncn2)cc1
8,74.8 nM,c1coc(CCNc2ncnc3ccc(-c4ccc5c(c4)OCO5)cc23)c1
9,1060 nM,Clc1cc(Cl)cc(CNc2ncncc2-c2ccc3c(c2)OCO3)c1
10,< 5.6 nM,c1nc(NCC2CCCO2)c2cc(-c3ccc4c(c3)OCO4)ccc2n1 (stereo not given)
11,2560 nM,Cc1ccc(CNc2ncnc3ccc(-c4ccoc4C)cc23)o1
12,340 nM,Clc1cc(Cl)cc(CNc2cc(-c3ccc4c(c3)OCO4)ncn2)c1
13,1970 nM,c1cncc(CNc2cc(-c3ccc4c(c3)OCO4)ncn2)c1
14,84.3 nM,Clc1ccc(CNc2nccc(-c3ccc4c(c3)OCO4)n2)cc1Cl
15,14.6 nM,c1nc(NCC2CCCC2)c2cc(-c3ccc4c(c3)OCO4)ccc2n1
16,36.5 nM,CCCNc1ncnc2ccc(-c3ccc4c(c3)OCO4)cc12
17,121 nM,Cc1occc1CNc1ncnc2ccc(-c3ccc4c(c3)OCO4)cc12
18,7.9 nM,Cc1ccsc1CNc1ncnc2ccc(-c3ccc4c(c3)OCO4)cc12
19,49.2 nM,CN(Cc1cccs1)c1ncnc2ccc(-c3ccc4c(c3)OCO4)cc12
20,6.72 nM,c1nc(NCC2CCCOC2)c2cc(-c3ccc4c(c3)OCO4)ccc2n1 (stereo not given)
21,62.5 nM,Cc1ccc(CNc2ncnc3ccc(-c4ccc5c(c4)OCO5)cc23)o1
22,10.4 nM,Cc1ccc(CN(C)c2ncnc3ccc(-c4ccc5c(c4)OCO5)cc23)o1
23,< 5.6 nM,c1csc(CCNc2ncnc3ccc(-c4ccc5c(c4)OCO5)cc23)c1
24,326 nM,c1csc(CNc2ncnc3ccc(-c4ccoc4)cc23)c1

# More lines, now with the values behind:
row,Structure (SMILES),AC50
1,Cc1c(-c2ccnc(NCc3cccnc3)n2)sc(=O)n1C,410 nM
2,c1cncc(CNc2ccnc(-c3ccc4[nH]ncc4c3)n2)c1,711 nM
3,CN(Cc1nccs1)c1ncnc2ccc(-c3ccc4c(c3)OCO4)cc12,< 5.6 nM
4,c1cncc(CNc2nccc(-c3ccc4c(c3)OCO4)n2)c1,48 nM
5,Clc1ccc(CNc2ccnc(-c3ccc4[nH]ncc4c3)n2)cc1Cl,19.1 nM
6,CS(=O)(=O)CCNCc1ccc(-c2ccc3ncnc(Nc4ccc(OCc5cccc(F)c5)c(Cl)c4)c3c2)o1,> 12000 nM (inactive)
7,Clc1ccc(Nc2nccc(-c3ccc4c(c3)OCO4)n2)cc1,228 nM
8,Cc1nc(CNc2ncnc3ccc(-c4ccoc4)cc23)cs1,907 nM
9,O=[N+]([O-])c1cc(Nc2nccc(-c3ccc4c(c3)OCO4)n2)cc(C(F)(F)F)c1,2850 nM
10,Brc1cc(Br)cc(CNc2nccc(-c3ccc4c(c3)OCO4)n2)c1,8.38 nM
11,Cc1ccsc1CN(C)c1ncnc2ccc(-c3ccoc3)cc12,60.9 nM
12,Clc1ccc(CNc2nccc(-c3ccc4c(c3)OCCO4)n2)cc1Cl,19.8 nM
13,Cc1nc(CN(C)c2ncnc3ccc(-c4ccc5c(c4)OCO5)cc23)cs1,20.8 nM
14,COc1ccc(-c2nccc(NCc3ccc(C)cc3)n2)cc1,< 5.6 nM
15,Cc1ccsc1CN(C)c1ncnc2ccc(-c3ccc(CO)o3)cc12,905 nM
16,CCOC(=O)c1ccc(-c2ccc3ncnc(N(C)Cc4sccc4C)c3c2)o1,486 nM
17,c1cc(-c2ccc3c(c2)OCO3)nc(Nc2ccc3c(c2)OCO3)n1,< 5.6 nM
18,Cc1noc(CN(C)c2ncnc3ccc(-c4ccc5c(c4)OCO5)cc23)n1,21.1 nM
19,c1cncc(CNc2nccc(-c3ccc4cn[nH]c4c3)n2)c1,217 nM
20,c1cncc(CNc2nccc(-c3ccc4[nH]ncc4c3)n2)c1,123 nM
21,Clc1ccc(CNc2nccc(-c3ccc4[nH]ncc4c3)n2)cc1Cl,114 nM
22,Cc1c(-c2ccnc(NCc3ccc(Cl)cc3)n2)sc(=O)n1C,109 nM
23,FC(F)(F)c1cccc(Nc2nccc(-c3ccc4c(c3)OCO4)n2)c1,< 5.6 nM
24,CN(C)c1ccc(-c2nccc(NCc3cccs3)n2)cc1,5460 nM
25,Cc1csc(CN(C)c2ncnc3ccc(-c4ccc5c(c4)OCO5)cc23)n1,1970 nM
26,c1cncc(CNc2ccnc(-c3ccc4cn[nH]c4c3)n2)c1,3540 nM
27,Clc1ccc(CNc2nccc(-c3ccc4cn[nH]c4c3)n2)cc1Cl,21.6 nM

# Same assay, conditions: recombinant Dyrk1A, ADP-Glo luminescence, NFATc1 peptide; at 12 µM (top of the series)
row,"activity change, negative = inhibition",Structure (SMILES)
1,inactive,c1csc(CNc2ncnc3ccc(-c4ccc5c(c4)OCO5)cc23)n1
2,inactive,Cn1ccc2cc(-c3ccc4ncnc(NCc5cccc(F)c5)c4c3)ccc21
3,inactive,Cc1cccc(CNc2ncnc3ccc(-c4cccc(Cl)c4)cc23)c1
4,inactive,Cn1ccc2cc(-c3ccc4ncnc(NCc5ccc6c(c5)OCO6)c4c3)ccc21

# Source: PubChem BioAssay AID588449 (Broad Institute, 2011)
